Each structure is given as a SMILES string. Calls of active or inactive are those of the source. The rule behind the calls is not given here.

From ChEMBL document CHEMBL1157898 (Bioorg Med Chem Lett, 2010) come the findings set out here.

Test [1] deals with T1, Interleukin-1 receptor-associated kinase 4 (Homo sapiens) (UniProt Q9NWZ3).
T1 sequence (whole entry): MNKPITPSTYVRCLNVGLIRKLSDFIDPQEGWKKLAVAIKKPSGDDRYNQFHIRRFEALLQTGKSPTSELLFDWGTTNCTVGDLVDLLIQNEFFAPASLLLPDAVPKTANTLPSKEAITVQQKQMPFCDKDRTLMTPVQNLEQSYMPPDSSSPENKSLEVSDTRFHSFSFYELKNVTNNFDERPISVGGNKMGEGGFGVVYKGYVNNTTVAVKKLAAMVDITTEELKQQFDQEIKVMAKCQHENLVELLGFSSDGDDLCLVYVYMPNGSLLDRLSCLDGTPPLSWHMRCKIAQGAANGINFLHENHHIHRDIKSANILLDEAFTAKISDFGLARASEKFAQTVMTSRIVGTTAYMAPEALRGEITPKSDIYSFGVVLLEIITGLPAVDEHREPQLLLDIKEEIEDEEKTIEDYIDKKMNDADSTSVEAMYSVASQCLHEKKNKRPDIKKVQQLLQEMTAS
Briefly: Inhibition of IRAK4 at 5 uM.

Test [2] deals with Ribosomal protein S6 kinase beta-1 (Homo sapiens) (UniProt P23443). Briefly: Inhibition of p70S6K.
Ribosomal protein S6 kinase beta-1 (Homo sapiens), sequence (P23443 whole entry, looked up): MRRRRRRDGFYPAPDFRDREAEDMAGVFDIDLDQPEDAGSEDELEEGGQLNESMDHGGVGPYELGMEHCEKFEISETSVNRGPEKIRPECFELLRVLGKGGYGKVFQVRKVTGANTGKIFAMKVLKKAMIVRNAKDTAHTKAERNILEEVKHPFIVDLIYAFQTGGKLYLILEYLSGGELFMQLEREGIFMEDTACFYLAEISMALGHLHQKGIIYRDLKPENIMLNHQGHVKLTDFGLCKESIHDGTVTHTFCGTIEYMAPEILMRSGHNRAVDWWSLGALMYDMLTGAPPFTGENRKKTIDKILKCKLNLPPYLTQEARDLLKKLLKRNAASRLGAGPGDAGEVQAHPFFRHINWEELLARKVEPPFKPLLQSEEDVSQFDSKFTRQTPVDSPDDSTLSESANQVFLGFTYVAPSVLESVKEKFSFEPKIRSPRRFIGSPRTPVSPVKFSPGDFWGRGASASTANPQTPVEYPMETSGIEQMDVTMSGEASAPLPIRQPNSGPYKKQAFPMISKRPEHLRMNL
Test [3] addresses T2, Gamma-secretase (Homo sapiens) (UniProt Q96BI3+Q9NZ42+Q8WW43+P49768+Q92542+P49810). The experiment in a line: Inhibition of gamma secretase mediated amyloid beta 42 generation in human H4 cells at 10 uM by LPECL assay; values are per cent of control.
Test [4] deals with Receptor-type tyrosine-protein kinase FLT3 (Homo sapiens) (UniProt P36888). The experiment in a line: Inhibition of FLT3.
Receptor-type tyrosine-protein kinase FLT3 (Homo sapiens), sequence (P36888 whole entry): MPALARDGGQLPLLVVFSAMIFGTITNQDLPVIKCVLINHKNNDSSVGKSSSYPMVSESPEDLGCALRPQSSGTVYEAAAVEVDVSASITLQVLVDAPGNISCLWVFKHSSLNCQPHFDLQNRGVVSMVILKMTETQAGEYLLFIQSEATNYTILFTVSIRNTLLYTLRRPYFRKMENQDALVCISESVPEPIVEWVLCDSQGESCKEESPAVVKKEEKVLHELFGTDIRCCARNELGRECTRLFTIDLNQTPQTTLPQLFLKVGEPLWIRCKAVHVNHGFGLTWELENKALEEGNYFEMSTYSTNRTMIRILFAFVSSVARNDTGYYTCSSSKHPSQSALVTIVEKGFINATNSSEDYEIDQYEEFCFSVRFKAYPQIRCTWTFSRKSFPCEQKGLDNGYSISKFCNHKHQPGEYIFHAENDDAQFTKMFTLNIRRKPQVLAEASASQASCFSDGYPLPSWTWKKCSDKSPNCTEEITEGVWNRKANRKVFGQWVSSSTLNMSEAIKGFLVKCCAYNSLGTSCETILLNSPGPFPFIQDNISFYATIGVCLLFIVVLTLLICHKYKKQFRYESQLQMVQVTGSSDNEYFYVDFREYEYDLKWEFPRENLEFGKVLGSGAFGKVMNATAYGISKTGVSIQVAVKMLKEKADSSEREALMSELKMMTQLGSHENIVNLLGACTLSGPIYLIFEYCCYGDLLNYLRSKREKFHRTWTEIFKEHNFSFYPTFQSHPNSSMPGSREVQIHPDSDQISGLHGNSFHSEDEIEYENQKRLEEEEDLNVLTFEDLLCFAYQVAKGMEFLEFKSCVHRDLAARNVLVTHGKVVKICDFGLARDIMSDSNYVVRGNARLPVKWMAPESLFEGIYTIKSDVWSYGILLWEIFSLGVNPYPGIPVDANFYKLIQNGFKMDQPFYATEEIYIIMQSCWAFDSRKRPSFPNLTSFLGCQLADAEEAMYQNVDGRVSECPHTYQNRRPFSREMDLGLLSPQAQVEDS
Test [5] concerns the target Mitogen-activated protein kinase 14 (Homo sapiens) (UniProt Q16539). Briefly: Inhibition of P38alpha.
Test [6] deals with T2, Gamma-secretase (Homo sapiens). Briefly: Inhibition of gamma secretase mediated amyloid beta 40 generation in human H4 cells at 10 uM by LPECL assay; values are per cent of control.
Test [7] addresses Insulin-like growth factor 1 receptor (Homo sapiens) (UniProt P08069). Briefly: Inhibition of IGF1R.
Test [8] concerns the target Ribosomal protein S6 kinase alpha-1 (Homo sapiens) (UniProt Q15418). The experiment in a line: Inhibition of RSK1.
Test [9] deals with Ribosomal protein S6 kinase alpha-5 (Homo sapiens) (UniProt O75582). Briefly: Inhibition of MSK1.
Ribosomal protein S6 kinase alpha-5 (Homo sapiens), sequence (O75582 whole entry, looked up): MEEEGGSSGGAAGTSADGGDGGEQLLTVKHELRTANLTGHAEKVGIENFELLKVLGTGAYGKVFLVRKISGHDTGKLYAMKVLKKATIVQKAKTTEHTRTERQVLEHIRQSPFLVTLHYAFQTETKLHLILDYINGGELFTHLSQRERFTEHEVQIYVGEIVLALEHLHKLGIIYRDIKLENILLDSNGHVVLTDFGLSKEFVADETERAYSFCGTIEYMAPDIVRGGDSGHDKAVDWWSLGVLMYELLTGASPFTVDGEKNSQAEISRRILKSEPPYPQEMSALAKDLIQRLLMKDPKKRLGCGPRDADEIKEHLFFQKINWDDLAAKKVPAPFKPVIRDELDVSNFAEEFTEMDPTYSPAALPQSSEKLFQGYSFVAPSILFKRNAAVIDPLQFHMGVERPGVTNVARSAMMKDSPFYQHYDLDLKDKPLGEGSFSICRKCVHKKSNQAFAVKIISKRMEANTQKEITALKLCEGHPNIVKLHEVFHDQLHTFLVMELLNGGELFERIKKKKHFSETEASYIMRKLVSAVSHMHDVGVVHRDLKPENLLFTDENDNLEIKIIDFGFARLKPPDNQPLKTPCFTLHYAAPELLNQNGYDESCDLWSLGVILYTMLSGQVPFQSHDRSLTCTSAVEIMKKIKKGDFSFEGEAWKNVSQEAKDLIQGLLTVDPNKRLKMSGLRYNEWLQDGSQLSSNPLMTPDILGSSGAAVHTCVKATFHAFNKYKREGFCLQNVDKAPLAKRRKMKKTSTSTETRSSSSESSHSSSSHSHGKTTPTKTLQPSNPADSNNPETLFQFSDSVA
Test [10] deals with Glycogen synthase kinase-3 beta (Homo sapiens) (UniProt P49841). The experiment in a line: Inhibition of GSK3-beta.
Glycogen synthase kinase-3 beta (Homo sapiens), sequence (P49841 whole entry, looked up): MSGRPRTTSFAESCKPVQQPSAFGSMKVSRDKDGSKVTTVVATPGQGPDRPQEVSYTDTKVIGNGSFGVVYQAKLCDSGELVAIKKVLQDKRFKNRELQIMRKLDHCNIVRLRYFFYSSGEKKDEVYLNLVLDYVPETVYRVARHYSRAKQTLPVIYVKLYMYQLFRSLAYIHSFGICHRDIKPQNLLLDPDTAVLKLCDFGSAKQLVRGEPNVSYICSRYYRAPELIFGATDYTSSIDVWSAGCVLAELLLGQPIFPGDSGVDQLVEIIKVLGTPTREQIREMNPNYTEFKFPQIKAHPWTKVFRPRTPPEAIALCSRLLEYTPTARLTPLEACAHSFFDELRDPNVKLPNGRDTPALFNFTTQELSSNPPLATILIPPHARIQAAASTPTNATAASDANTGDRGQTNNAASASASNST
The target of test [11] is Mitogen-activated protein kinase kinase kinase kinase 4 (Homo sapiens) (UniProt O95819). The experiment in a line: Inhibition of HGK.
Test [12] concerns the target T2, Gamma-secretase (Homo sapiens). Briefly: Inhibition of gamma secretase mediated amyloid beta 38 generation in human H4 cells at 10 uM by LPECL assay; values are per cent of control.
For test [13], the target named is T3, Serine/threonine-protein kinase Sgk1 (Homo sapiens) (UniProt O00141).
T3 sequence (whole entry): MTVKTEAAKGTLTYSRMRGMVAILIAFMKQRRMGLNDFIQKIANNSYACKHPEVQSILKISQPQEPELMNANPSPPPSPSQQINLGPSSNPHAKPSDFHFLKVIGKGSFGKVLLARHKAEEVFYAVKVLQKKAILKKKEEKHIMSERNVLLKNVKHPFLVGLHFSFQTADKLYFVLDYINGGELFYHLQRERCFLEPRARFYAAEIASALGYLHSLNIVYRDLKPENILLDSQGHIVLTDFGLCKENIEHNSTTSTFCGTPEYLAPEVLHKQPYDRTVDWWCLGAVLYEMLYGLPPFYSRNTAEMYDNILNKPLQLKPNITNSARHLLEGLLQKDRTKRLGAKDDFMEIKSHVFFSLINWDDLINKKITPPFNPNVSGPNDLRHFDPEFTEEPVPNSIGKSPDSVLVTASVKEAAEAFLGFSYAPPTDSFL
Briefly: Inhibition of SGK1.

Ribosomal protein S6 kinase alpha-1 (Homo sapiens), sequence (Q15418 whole entry): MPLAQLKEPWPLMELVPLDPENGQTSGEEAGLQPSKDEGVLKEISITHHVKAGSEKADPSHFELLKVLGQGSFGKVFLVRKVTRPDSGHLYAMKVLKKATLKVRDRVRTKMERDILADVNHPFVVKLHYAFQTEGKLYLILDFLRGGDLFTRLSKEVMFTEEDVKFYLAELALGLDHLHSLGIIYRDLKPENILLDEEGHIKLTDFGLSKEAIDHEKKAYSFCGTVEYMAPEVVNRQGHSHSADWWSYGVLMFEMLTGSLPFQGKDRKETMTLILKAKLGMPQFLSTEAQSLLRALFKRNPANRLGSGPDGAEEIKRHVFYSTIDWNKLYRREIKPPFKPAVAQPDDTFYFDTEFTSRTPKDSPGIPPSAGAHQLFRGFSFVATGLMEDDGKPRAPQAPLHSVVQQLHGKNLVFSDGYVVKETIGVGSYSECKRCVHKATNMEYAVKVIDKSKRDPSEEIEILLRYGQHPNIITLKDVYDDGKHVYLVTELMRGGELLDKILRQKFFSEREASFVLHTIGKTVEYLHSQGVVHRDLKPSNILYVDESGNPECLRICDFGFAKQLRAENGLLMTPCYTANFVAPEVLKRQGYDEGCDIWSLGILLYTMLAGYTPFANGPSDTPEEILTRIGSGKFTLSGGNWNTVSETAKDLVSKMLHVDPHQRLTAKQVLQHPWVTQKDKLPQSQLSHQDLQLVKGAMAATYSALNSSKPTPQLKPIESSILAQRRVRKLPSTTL
Insulin-like growth factor 1 receptor (Homo sapiens), sequence (P08069 31-736 limits assumed): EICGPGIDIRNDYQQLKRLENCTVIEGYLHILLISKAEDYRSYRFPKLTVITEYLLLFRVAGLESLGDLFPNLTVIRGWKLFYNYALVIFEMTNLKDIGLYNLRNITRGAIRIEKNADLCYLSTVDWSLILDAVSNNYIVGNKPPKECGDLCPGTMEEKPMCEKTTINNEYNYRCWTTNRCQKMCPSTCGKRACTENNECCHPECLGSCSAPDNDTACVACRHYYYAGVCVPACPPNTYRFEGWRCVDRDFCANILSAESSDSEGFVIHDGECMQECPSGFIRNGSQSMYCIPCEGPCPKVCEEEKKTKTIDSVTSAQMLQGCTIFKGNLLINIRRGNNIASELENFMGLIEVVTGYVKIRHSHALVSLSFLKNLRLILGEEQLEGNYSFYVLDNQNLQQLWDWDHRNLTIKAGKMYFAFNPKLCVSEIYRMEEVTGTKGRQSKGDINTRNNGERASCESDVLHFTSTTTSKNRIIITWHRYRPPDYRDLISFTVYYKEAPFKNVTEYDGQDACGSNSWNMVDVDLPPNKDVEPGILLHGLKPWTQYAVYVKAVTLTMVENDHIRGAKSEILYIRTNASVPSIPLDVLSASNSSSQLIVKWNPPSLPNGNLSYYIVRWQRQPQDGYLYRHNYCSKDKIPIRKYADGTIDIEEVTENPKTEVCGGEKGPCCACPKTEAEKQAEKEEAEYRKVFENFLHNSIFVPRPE
Insulin-like growth factor 1 receptor (Homo sapiens), sequence (P08069 741-1367 limits assumed): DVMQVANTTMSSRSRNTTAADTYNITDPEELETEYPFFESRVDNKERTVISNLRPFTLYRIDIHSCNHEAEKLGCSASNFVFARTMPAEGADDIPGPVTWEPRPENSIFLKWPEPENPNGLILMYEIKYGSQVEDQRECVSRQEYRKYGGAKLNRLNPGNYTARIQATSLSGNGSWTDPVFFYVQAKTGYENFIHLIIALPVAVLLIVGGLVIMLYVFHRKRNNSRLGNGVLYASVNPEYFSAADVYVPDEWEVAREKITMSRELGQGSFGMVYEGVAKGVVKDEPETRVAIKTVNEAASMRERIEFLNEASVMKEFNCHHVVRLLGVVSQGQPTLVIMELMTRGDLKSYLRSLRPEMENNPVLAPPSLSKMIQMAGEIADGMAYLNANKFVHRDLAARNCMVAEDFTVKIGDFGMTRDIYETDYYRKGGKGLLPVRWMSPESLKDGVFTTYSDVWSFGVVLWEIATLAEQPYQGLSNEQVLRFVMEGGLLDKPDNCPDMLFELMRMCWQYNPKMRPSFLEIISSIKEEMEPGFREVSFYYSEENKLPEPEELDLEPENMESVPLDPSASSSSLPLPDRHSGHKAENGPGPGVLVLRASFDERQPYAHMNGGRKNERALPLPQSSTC

As to `CCN(CC)CCNC(=O)c1c(C)[nH]c(/C=C2\C(=O)Nc3ccc(F)cc32)c1C` [SUNITINIB], the inhibition entry in test [1], in test [2], in [4], in test [5], in test [7] and in test [8] was “inactive” each time. Moreover, the inhibition entry in test [9], in test [10], in [11] and in test [13] was “inactive” each time. Besides, the residual activity (commonly the signal under treatment as a percentage of the control signal) in test [3] was 26%; in test [6], 53%; in test [12] it was 26%.
For `COc1cc(/C=C2/C(=O)Nc3ccc(Cl)cc32)cc(OC)c1OC`, the inhibition entry in test [1], in [2], in test [4], in [5], in [7] and in [8] was “inactive” throughout. Further, the inhibition entry in test [9], in test [10], in [11] and in test [13] was “inactive” throughout. Moreover, the residual activity is 65% in test [3], 72% in [6] and 54% in test [12].
Regarding `O=C1Nc2ccc(Cl)cc2/C1=C\c1ccccc1S(=O)(=O)O`, the inhibition entry in [1], in [2], in test [4], in test [5], in test [7] and in test [8] was “inactive” each time. Moreover, the inhibition entry in [9], in test [10], in test [11] and in test [13] was “inactive” throughout. Besides, the residual activity worked out at 88% in [3], 96% in test [6] and 101% in test [12].
Consider `NC(=O)Cc1ccc(/C=C2/C(=O)Nc3ccc(Cl)cc32)cc1`, for which the inhibition result in test [1], in test [2], in test [4], in [5], in test [7] and in test [8] was “inactive” throughout. Besides, the inhibition entry in test [9], in [10], in test [11] and in [13] was “inactive” in each case. Further, the values for the residual activity in [3], in test [6] and in test [12] were 97%, 97% and 99%, respectively.
Turning to `O=C1Nc2ccc(Cl)cc2/C1=C\c1ccccc1[N+](=O)[O-]`, the inhibition result in test [1], in test [2], in [4], in [5], in test [7] and in [8] was “inactive” throughout. In addition, the inhibition entry in test [9], in [10], in test [11] and in test [13] was “inactive” in each case. The residual activity in test [3] is 83%; in test [6], 88%; in test [12], 94%.
For `O=C1Nc2ccc(Cl)cc2/C1=C\c1cc(F)cc(F)c1`, the inhibition entry in [1], in [2], in [4], in test [5], in test [7] and in test [8] was “inactive” in each case. Further, the inhibition result in test [9], in [10], in test [11] and in test [13] was “inactive” in each case.
Consider `O=C1Nc2ccc(Cl)cc2/C1=C\c1ccccc1F`, for which the inhibition result in [1], in [2], in [4], in [5], in [7] and in test [8] was “inactive” throughout. Also, the inhibition result in test [9], in test [10], in test [11] and in [13] was “inactive” in each case. Besides, the residual activity in test [3] was found to be 91%; in test [6] it was 88%; in test [12], 87%.
For `O=C1Nc2ccc(Cl)cc2/C1=C\c1ccc2c(c1)OCO2`, the inhibition result in [1], in test [2], in test [4], in test [5], in test [7] and in [8] was “inactive” in each case. Further, the inhibition result in test [9], in test [10], in [11] and in [13] was “inactive” in each case. In addition, the results for the residual activity in test [3], in test [6] and in test [12] were 90%, 93% and 86%, respectively.
